# Experimental data as given in patent US20250237010A1, “Selenium Containing Antimicrobial Compound as a Reacitve Dye and Cross-Linking Treatment for Textile Applications” (Texas Tech University System, priority 2021, published 2025).
# Read-outs that look alike come from different tables or passages of the source.
# What was measured:
# [1] = system: gram-negative and gram-positive bacteria; assay: Antimicrobial activity compared with industry requirements; type: cell-based
# Text: In one example, the invention is the chemical compound diseleniummonochlorotriazine. Triazines are commonly used in the textile chemistry to synthesis the reactive dye and apply to fabrics as they form covalent bonds with cellulose. Incorporating selenium creates a reactive dye with antimicrobial properties. This same base structure can be used to make diselenocyanuric chloride, diselenocyanuric bromide, diselenocyanuric fluoride, or diselenocyanuric iodine. […] In one example, the antimicrobial agent has the structure: […]
# [2] = system: Staphylococcus aureus; assay: Bacterial killing (CFUs/sample) on cotton fabric treated with the organo-selenium compound, Gram-positive; type: cell-based
# Text: (§1) FIGS. 1A and 1B are graphs that compares the colony forming units (CFUs) per sample of bacteria on a fabric, showing total bacterial killing with the organoselenium compound, and no killing without the organoselenium compound. In this example, the organoselenium compound was applied to the fabric as a reactive dye.
# (§2) The technology modifies triazines, a commonly used reactive dye within the textile chemistry for application to impart colors to fabrics, by incorporation of selenium to create a reactive dye with antimicrobial characteristics. Since the cotton manufacturing/processing industry currently relies on annealing of triazine to create colored fabrics, the presented technology can be incorporated into this sector with minimal changes in the production environment. The created compound, diseleniummonochlorotriazine, was evaluated in the laboratory by attaching the Se-based compound onto cotton fabrics with the following results: (1) Diseleniummonochlorotriazine killed 100% of Gram-positive bacteria (e.g., Staphylococcus aureus) that attempted to bind to the cotton, and (2) Diseleniummonochlorotriazine killed 90% of Gram-negative bacteria. (e.g., Pseudomonas aeruginosa) that attempted to bind to the cotton.
# (§3) Example 1. […] The application technique for the organo-selenium compound can be used by, e.g., the textile industry, on an industrial scale to produce an anti-microbial fabric. […]
# [3] = system: Pseudomonas aeruginosa; assay: Bacterial killing (CFUs/sample) on cotton fabric treated with the organo-selenium compound, Gram-negative; type: cell-based; settings: compound attached onto cotton fabric; e.g. Pseudomonas aeruginosa
# Text: as §1, §2, §3
# [4] = Binding to cotton and resistance to washing of the resulting fabric; type: physicochemical; settings: attached to cotton yarns as reactive dye
# Text: Briefly, the inventors developed organo-selenium compounds that can be attached to cotton yarns and is suitable for applications as reactive dye.
Molecule,antimicrobial activity level relative to industry expectations/requirements [1],antimicrobial activity level relative to industry expectations/requirements ([1]; listed as diseleniummonochlorotriazine),"killed % of Gram-positive bacteria that attempted to bind to the cotton ([2]; compound attached onto cotton fabric, e.g. Staphylococcus aureus) [%]",killed % of Gram-negative bacteria that attempted to bind to the cotton [3] [%],binding to the cotton and resistance to washing [4],"killing of Staphylococcus aureus on the fabric (CFUs per sample), in words ([2]; treated cotton fabric, FIG. 1A, applied as reactive dye)"
OCC(O)C[Se][Se]CC(O)CO (stereo not shown),matches or exceed industrial requirements,–,–,–,–,–
"Clc1nc([SeH])nc([SeH])n1 [Diseleniummonochlorotriazine, diseleniummonochlorotriazine]",matches industry expectations,matches or exceed industrial requirements,100,90,–,–
diselenocyanuric chloride,–,–,–,–,resistant to multiple washings,totally kill
